Source: patent US20220096415A1, “Composition for Improving Cognitive Function” (Demencare Laboratory Inc., priority 2018, published 2022)

Tests used:
[1] = target: T1, recombinant BACE1 (rBACE1) (Homo sapiens, UniProt P56817); assay: BACE1 activity with recombinant BACE1 in the presence of LA or c9,t11-CLA; type: biochemical; details: 100 μM; for BACE1 activity compared to just a solvent DMSO: rBACE1, 37° C. 15 min, then substrate 1 h
T1 construct: purchased R&D Systems 931-AS
Description: Whether or not c9,t11-CLA directly acted on BACE1 and changed its activity was checked by measuring the BACE1 activity in the presence or absence of LA or c9,t11-CLA while recombinant BACE1 (rBACE1, catalog number 931-AS; R&D Systems, Minneapolis, Minn., USA) was used (FIG. 6). First, 100 μM LA or c9,t11-CLA, which had been dissolved in DMSO, was added to rBACE1, and the mixture was incubated at 37° C. for 15 min. Next, a chromogenic substrate was added and incubated at 37° C. for 1 h. Then, the BACE1 activity was measured.

[2] = test system: neurons from APP-KI mouse; assay: Human Aβ42 secreted by APP-KI mouse neurons; type: cell-based; details: LA-treated versus c9,t11-CLA-treated nerves, p<0.05, not shown
From the text: The amount of Aβ42 generated from endogenous amyloid-β (Aβ) precursor protein APP is usually very small. Thus, it is difficult to accurately quantify Aβ42 secreted from wild-type mouse neurons. Then, the mouse Aβ sequence was changed to a human form (in FIG. 3(B), the mouse and human amino acid sequences). After that, neurons from a knock-in mouse, into which a familial Alzheimer's disease mutation that increases the level of Aβ42 produced was introduced, (Apptm3.1Tcs/Apptm3.1Tcs) (hereinafter, the same as a mouse called APP-KI mouse described in Non-Patent Literature 6: Saito et al. [2014] Nature Neuroscience 17, 661-663) were cultured in a manner similar to the above. Finally, human Aβ42 secreted while the same experiments as in FIG. 3(A) were repeated was quantified (Non-Patent Literature 7: Kimura, Hata, Suzuki [2016] J. Biol. Chem. 291, 24041-24053).

neural stem cells = details: Non-Patent Literature 3; cited from earlier work
wild-type mouse neurons = assay: Aβ40 secreted into culture medium by wild-type mouse neurons (sandwich ELISA); type: cell-based; details: 10 uM, 24 h; compared with LA-added neurons (LA set to 1.0)
Description: Neurons in the cerebral cortex and hippocampus were isolated from the fetal brain of wild-type mouse (C57BL6/J) and were cultured in Neurobasal Medium containing 2% B-27 Supplement (Invitrogen), 4 mM Glutamax I, and 5% heat-inactivated horse serum (the other detailed conditions were substantially the same as in the protocol disclosed in Non-Patent Literature 4: Chiba et al., [2014] Mol. Biol. Cell 25, 3569-3580).
Primary culture nerves (5×10^3 cells), which had been cultured by the above procedure for 9 to 12 days (DIV9-12), were cultured for 24 h in each of a culture medium containing 10 uM linoleic acid (LA “L1376”, Sigma-Aldrich, Inc.) or a culture medium containing 10 uM c9,t11-CLA (purity: 98%, ABCAM, Inc.) (the experiment was triplicate: n=3 to 6). Next, for each of a sample using LA or a sample using c9,t11-CLA, mouse amyloid β-protein 40 (Aβ40) secreted into the culture medium was quantified by sandwich ELISA (sELISA). […]
The complex was then reacted with an IgG Fab′ fragment of HRP (Horseradish peroxidase)-labeled mouse/rat Aβ(1-16) sequence-specific (rabbit) antibody (IBL, Inc.: Immuno-Biological Laboratories Co, Ltd.). After that, TMB (3,3′,5,5′-tetramethyl benzidine) was used as a chromogenic substrate for quantification. […] In FIG. 3(A), while the level of Aβ40 secreted when LA was added was set to 1.0, the level of Aβ40 secreted when c9,t11-CLA was added was quantified.

wild-type neurons = assay: Western blot of APP, BACE1 and PS1 NTF levels in wild-type neurons; type: cell-based, mouse; details: c9,t11-CLA versus LA
Description: Western blot was used to analyze the level of APP (Aβ precursor, which is a substrate for BACE1), BACE1, PS1 NTF (a catalytic unit of γ-Secretase, which is an enzyme for cleaving CTFβ, an APP C-terminal fragment containing an Aβ sequence cleaved by BACE1, to generate Aβ), and a membrane protein Flotillin (control protein) in the LA-added or c9,t11-CLA-added wild-type neurons. The whole cells were lysed in RIPA buffer (components: 50 mM Tris-HCl [pH 8.0], 150 mM NaCl, 0.5% SDS, 0.5% sodium deoxycholate, and 1% Nonidet P-40). The extracted proteins (15 μg protein) were subjected to electrophoresis using SDS-polyacrylamide gel. Then, Western blot with each antibody was used to analyze APP (with the same as an antibody G369, described in Non-Patent Literature 8: Oishi et al. [1997] Mol. Med. 3, 111-123), BACE1 (with an antibody D10E5; Cell Signaling Technology, Inc.), PS1 NTF (with the same as an antibody Ab14, described in Non-Patent Literature 9: Thinakaran et al. [1996] Neuron, 17, 181-190), and Flotillin-1 (with an antibody 610821, BD Bioscience, Inc.). The protein reacted with each antibody was detected using a Clarity Western ECL substrate (Cat *170-5061; Bio-Rad) and quantified with LAS-4000 (Fujifilm).

AD model mice = AD model mice with oral intake of c9,t11-CLA: brain staining (IL-10, phosphorylated tau, astrocytes, microglia); type: in vivo, mouse
BACE1 = BACE1 activity of wild-type mouse neurons (β-Secretase Activity Assay Kit); type: cell-based; details: 10 uM, 24 h, compared with LA-added neurons
Description: The BACE1 activity of the above wild-type mouse neurons used in the experiments shown in FIG. 3 was measured using a β-Secretase (BACE1) Activity Assay Kit (“ab65357”, Abcam, Inc.) in accordance with the instructions.

neurons = details: Non-Patent Literature 1; cited from earlier work
[3] = hippocampus, oral intake versus no intake

T1 sequence (P56817 46-457 limits assumed): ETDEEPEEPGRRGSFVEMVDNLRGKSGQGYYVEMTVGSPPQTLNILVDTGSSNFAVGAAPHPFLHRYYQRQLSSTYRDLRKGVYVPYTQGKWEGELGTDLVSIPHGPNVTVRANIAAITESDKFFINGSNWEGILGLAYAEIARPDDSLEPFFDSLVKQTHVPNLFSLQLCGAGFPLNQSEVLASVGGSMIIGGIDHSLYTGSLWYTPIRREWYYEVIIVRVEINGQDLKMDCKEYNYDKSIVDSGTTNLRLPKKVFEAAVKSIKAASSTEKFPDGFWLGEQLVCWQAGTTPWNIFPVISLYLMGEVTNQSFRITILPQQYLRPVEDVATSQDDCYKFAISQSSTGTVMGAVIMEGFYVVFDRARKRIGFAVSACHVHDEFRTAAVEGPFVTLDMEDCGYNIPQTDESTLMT

SMILES | BACE1 activity compared to just a solvent DMSO [1] | level of human Aβ42 secreted [2] | difference in BACE1 activity between LA and c9,t11-CLA ([1]; rBACE1) | effect on growth of neural stem cells (neural stem cells) | level of Aβ produced/secreted (mouse Aβ40) (wild-type mouse neurons) | level of APP (wild-type neurons) | level of BACE1 (wild-type neurons) | level of PS1 NTF (wild-type neurons) | Microglia (Iba1 staining) (AD model mice; cortex, CLA intake group) | Microglia (Iba1 staining) (AD model mice; hippocampus, CLA intake group) | number of IL-10-expressing cells (AD model mice; hippocampus, CLA intake group) | Astrocyte staining (AD model mice; [3]) | Phosphorylated tau protein staining (AD model mice; [3]) | BACE1 activity of neurons (BACE1) | prevention of glutamic acid-induced hyper-excited state and cell death of neurons (neuroprotective effect) (neurons)
CCCCC/C=C\C/C=C\CCCCCCCC(=O)O [LA, linoleic acid, reference compound] | increase in the activity | significantly lower | – | – | – | – | – | – | – | – | – | – | – | – | –
CCCCCC/C=C/C=C\CCCCCCCC(=O)O [c9,t11-CLA, c9,t11-conjugated linoleic acid] | increase in the activity | – | no observed significant difference | promoting growth of neural stem cells | significantly lower | no observed significant difference | no observed significant difference | no observed significant difference | significant increase | significant increase | significantly increased | tended to decrease | tended to decrease | significantly lower | can exert the effects
CCCCC/C=C\C=C\CCCCCCCCC(=O)O [t10,c12-CLA, t10,c12-conjugated linoleic acid, reference compound] | – | – | – | inhibition of growth of neural stem cells | – | – | – | – | – | – | – | – | – | – | fails to exert such effects
